In PubChem BioAssay (NCI):
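A five-concentration, 48-hour dose response in 96-well plates underlies each endpoint, interpolated linearly between surrounding concentrations. GI50: concentration for 50% inhibition of growth. The concentration for full growth arrest is given as TGI.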

Key:
Test in all cases: DTP human tumour cell line panel, 48 h
[1] = test system: 786-0 renal
[2] = test system: A498 renal
[3] = test system: A549 NSCLC
[4] = test system: ACHN renal
[5] = test system: BT-549 breast
[6] = test system: CAKI-1 renal
[7] = test system: CCRF-CEM leukemia
[8] = test system: COLO 205 colon
[9] = test system: DU-145 prostate
[10] = test system: EKVX NSCLC
[11] = test system: HCC-2998 colon
[12] = test system: HCT-116 colon
[13] = test system: HCT-15 colon
[14] = test system: HL-60(TB) leukemia
[15] = test system: HOP-62 NSCLC
[16] = test system: HOP-92 NSCLC
[17] = test system: HS 578T breast
[18] = test system: HT29 colon
[19] = test system: IGROV1 ovarian
[20] = test system: K-562 leukemia
[21] = test system: KM12 colon
[22] = test system: LOX IMVI melanoma
[23] = test system: M14 melanoma
[24] = test system: MALME-3M melanoma
[25] = test system: MCF7 breast
[26] = test system: MDA-MB-231 breast
[27] = test system: MDA-MB-435
[28] = test system: MOLT-4 leukemia
[29] = test system: NCI-H226 lung
[30] = test system: NCI-H23 lung
[31] = test system: NCI-H460 lung
[32] = test system: NCI-H522 lung
[33] = test system: NCI/ADR-RES ovarian
[34] = test system: OVCAR-3 ovarian
[35] = test system: OVCAR-4 ovarian
[36] = test system: OVCAR-5 ovarian
[37] = test system: OVCAR-8 ovarian
[38] = test system: PC-3 prostate
[39] = test system: RPMI-8226 leukemia
[40] = test system: RXF 393 renal
[41] = test system: SF-268 CNS
[42] = test system: SF-295 CNS
[43] = test system: SF-539 CNS
[44] = test system: SK-MEL-2 melanoma
[45] = test system: SK-MEL-28 melanoma
[46] = test system: SK-MEL-5 melanoma
[47] = test system: SK-OV-3 ovarian
[48] = test system: SN12C renal
[49] = test system: SNB-19 CNS
[50] = test system: SNB-75 CNS
[51] = test system: SR leukemia
[52] = test system: SW-620 colon
[53] = test system: T-47D breast
[54] = test system: TK-10 renal
[55] = test system: U251 CNS
[56] = test system: UACC-257 melanoma
[57] = test system: UACC-62 melanoma
[58] = test system: UO-31 renal

Nc1cccc2c1C(=O)c1cccc(NC(=O)c3ccccc3)c1C2=O
GI50 [1]: 0.646 µM
TGI [1]: 15.7 µM
GI50 [2]: 0.306 µM
TGI [2]: 6.56 µM
GI50 [3]: 0.677 µM
TGI [3]: 4.66 µM
GI50 [4]: 0.59 µM
TGI [4]: > 100 µM
GI50 [5]: 0.674 µM
TGI [5]: 33.9 µM
GI50 [6]: 0.229 µM
TGI [6]: 3.01 µM
GI50 [7]: 0.401 µM
TGI [7]: > 100 µM
GI50 [8]: 0.354 µM
TGI [8]: 6.74 µM
GI50 [9]: 0.561 µM
TGI [9]: > 22.6 µM
GI50 [10]: 0.421 µM
TGI [10]: 4.52 µM
GI50 [11]: 2.79 µM
TGI [11]: > 100 µM
GI50 [12]: 0.401 µM
TGI [12]: 5.17 µM
GI50 [13]: 0.448 µM
TGI [13]: > 100 µM
GI50 [14]: 0.292 µM
TGI [14]: > 100 µM
GI50 [15]: 0.535 µM
TGI [15]: 21.5 µM
GI50 [16]: 0.34 µM
TGI [16]: 6.72 µM
GI50 [17]: 0.412 µM
TGI [17]: > 53.1 µM
GI50 [18]: 0.291 µM
TGI [18]: 2.67 µM
GI50 [19]: 0.503 µM
TGI [19]: > 81.4 µM
GI50 [20]: 0.133 µM
TGI [20]: > 100 µM
GI50 [21]: 0.374 µM
TGI [21]: > 100 µM
GI50 [22]: 0.565 µM
TGI [22]: > 100 µM
GI50 [23]: 0.4 µM
TGI [23]: 36.4 µM
GI50 [24]: 0.242 µM
TGI [24]: 7.09 µM
GI50 [25]: 0.258 µM
TGI [25]: 21.3 µM
GI50 [26]: 1.06 µM
TGI [26]: > 100 µM
GI50 [27]: 0.0364 µM
TGI [27]: 0.414 µM
GI50 [28]: 0.751 µM
TGI [28]: > 100 µM
GI50 [29]: 1.7 µM
TGI [29]: > 100 µM
GI50 [30]: 0.903 µM
TGI [30]: > 100 µM
GI50 [31]: 0.371 µM
TGI [31]: > 32.6 µM
GI50 [32]: 0.0655 µM
TGI [32]: 0.618 µM
GI50 [33]: 0.212 µM
GI50 [34]: 0.254 µM
TGI [34]: 1.47 µM
GI50 [35]: 5.07 µM
TGI [35]: > 100 µM
GI50 [36]: 1.92 µM
TGI [36]: > 100 µM
GI50 [37]: 0.784 µM
TGI [37]: > 38.8 µM
GI50 [38]: 0.374 µM
TGI [38]: > 100 µM
GI50 [39]: 0.462 µM
TGI [39]: > 100 µM
GI50 [40]: 0.363 µM
TGI [40]: 2.95 µM
GI50 [41]: 0.576 µM
TGI [41]: > 100 µM
GI50 [42]: 0.166 µM
TGI [42]: 1.35 µM
GI50 [43]: 0.292 µM
TGI [43]: 13 µM
GI50 [44]: 0.25 µM
TGI [44]: 7.26 µM
GI50 [45]: 1.11 µM
TGI [45]: 21 µM
GI50 [46]: 0.355 µM
TGI [46]: 15 µM
GI50 [47]: 0.425 µM
TGI [47]: 9.24 µM
GI50 [48]: 0.723 µM
TGI [48]: > 80.6 µM
GI50 [49]: 0.591 µM
TGI [49]: > 100 µM
GI50 [50]: 0.28 µM
TGI [50]: 3.88 µM
GI50 [51]: 0.165 µM
TGI [51]: > 100 µM
GI50 [52]: 0.267 µM
TGI [52]: > 100 µM
GI50 [53]: 1.1 µM
TGI [53]: > 100 µM
GI50 [54]: 1.13 µM
TGI [54]: 8.13 µM
GI50 [55]: 0.54 µM
TGI [55]: 13.8 µM
GI50 [56]: 0.614 µM
TGI [56]: 64.8 µM
GI50 [57]: 0.221 µM
TGI [57]: 14 µM
GI50 [58]: 0.474 µM
TGI [58]: > 100 µM
